This passage reports AUC(0-t), Cmax and EC50 results from US11274082B2, “Tead inhibitors and uses thereof” (Ikena Oncology, Inc., priority 2019, dated 2022).

The nature of series [1]: Mouse pharmacokinetics study. The settings on record: BALB/c mice, 10 mg/kg by oral gavage in 5% DMS/95% PEG400, plasma. The format is in vivo. The method, then:
Formulated compounds were administered intravenously or orally via gavage to BALB/c mice. Typically, at 0.167, 0.5, 1, 2, 4, 6, 12, and 24 hours post-dose, blood was collected and processed to plasma by centrifugation and stored at −80° C. until analysis. Internal standard was added to each sample prior to protein precipitation with acetonitrile or TCA. The precipitates were filtered through a filter plate and the samples were analyzed by LC/MS/MS. A standard curve was prepared in plasma from typically from 1.0 ng/mL to 3000 ng/mL and processed in the same manner as the samples. Sample analysis was typically performed on a suitable LC/MS/MS system fitted with an analytical UPLC column and compounds eluted from the analytical column with a gradient from 30-95% 0.1% formic acid (v/v) in ACN: 0.1% formic acid (v/v) in water. Mass spectrometric detection of test compound and the internal standard was performed by MRM in positive mode. The pharmacokinetics of each compound were analyzed by Phoenix WinNonlin software (Pharsight, St. Louis, Mo.) via noncompartmental analysis.

The subject of the next series is H226. Kind of series: Anti-proliferation assay in H226 cells. It counts as cell-based. The settings on record: Homo sapiens. The procedure: (§1) Certain compounds were tested in TEAD reporter assay, and in H226 and H28. A: EC50<0.1 uM; B: 0.1 uM≤EC50≤0.5 uM; C: EC50>0.5 uM.
(§2) Individual cell lines were grown in medium according to supplier instructions and seeded into 96-well plates at a density that ensured logarithmic growth over 72 hours. TEAD inhibitor compounds were administered to cells at a top concentration of 10 μm and subsequently a 10 point 3-fold serial dilution was conducted. After 72 hours, proliferation was quantified using Cell TITERGLO™ (Promega, Inc.) and compared to vehicle control. IC50 and EC50 values were generated using XLFit curve fitting software.

The subject of a further series is TEAD. Kind of series: TEAD reporter assay (Hippo Pathway TEAD Reporter - MCF7 cell line, luciferase). The format is cell-based. The settings on record: Homo sapiens.
Text: TEAD inhibition can be assayed using Hippo Pathway TEAD Reporter—MCF7 Cell Line (BPS Bioscience, Catalog #: 60618).
The TEAD Reporter—MCF7 cell line contains the firefly luciferase gene under the control of TEAD responsive elements stably integrated into the human breast cancer cell line, MCF7. Inside the cells, basal unphosphorylated YAP/TAZ remains in the nucleus and induces the constitutive expression of luciferase reporter. The cell line is validated for the inhibition of the expression of luciferase reporter by the activators of the Hippo pathway.
• 1) Harvest TEAD Reporter—MCF7 cells from culture in growth medium and seed cells at a density of 35,000 cells per well into white clear-bottom 96-well microplate in 45 μl of assay medium. • 2) Incubate cells at 37° C. in a CO2 incubator for overnight. • 3) Dilute the activators (H2O2 or okadaic acid) stock in assay medium. Add 5 μl of diluted activators to the wells. The final concentration of DMSO in assay medium is 0.1%. • 4) Add 5 μl of assay medium with same concentration of DMSO without activator to control wells. • 5) Add 50 μl of assay medium with DMSO to cell-free control wells (for determining background luminescence). • 6) Set up each treatment in at least triplicate. • 7) Incubate cells at 37° C. in a CO2 incubator for 5-6 hours. • 8) Perform luciferase assay using the ONE-Step™ Luciferase Assay System following the protocol provided: Add 100 μl of ONE-Step™ Luciferase reagent per well and rock at room temperature for ˜15 minutes. Measure luminescence using a luminometer. • 9) Data Analysis: Obtain the background-subtracted luminescence by subtracting the average background luminescence (cell-free control wells) from the luminescence reading of all wells.
as §1
(In general: Reporter assays use an easily measured gene product as a stand-in for the process of interest.)

In the next series the test system is H28. Briefly: Anti-proliferation assay in H28 cells. The format is cell-based. The settings on record: Homo sapiens, NCI-H28. The method, then: as §1, §2
Setting [2] is: NCI-H226, H226 cells, read-out: H226 EC50.
Where [3] appears, read: TEAD Reporter - MCF7 cells, read-out: TEAD Reporter Assay EC50.
[4] abbreviates: NCI-H226, read-out: H226 EC50 (uM).
Setting [5] is: MCF7, read-out: TEAD Reporter Assay EC50 (uM).

Like-named read-outs stand apart in the source and are kept apart here.

The term AUC(0-t) denotes the area under the concentration-time curve up to a stated or last time point. The low end stands for less exposure, the high end for more exposure. Usually Cmax stands for the peak of the concentration-time curve. What is called EC50 is the midpoint of the concentration-response curve. In series [1], `CNS(=O)(=O)c1ccc(Nc2cc(C(F)(F)F)ccn2)c(-c2cn(C)cn2)c1` [I-33, N-Methyl-3-(1-methylimidazol-4-yl)-4-[[4-(trifluoromethyl)-2-pyridyl]amino]benzenesulfonamide] returned an area under the curve AUC(0-t) of 731 ng·h/mL and a Cmax of 420 ng/mL. The EC50 in the series on H226 (setting [2]) is less than 0.1 µM. Besides, the EC50 with TEAD (setting [3]) was less than 0.1 µM.

With `CCNS(=O)(=O)c1ccc(Nc2cc(C(F)(F)F)ccn2)c(-c2cn(C)cn2)c1` [I-37, N-Ethyl-3-(1-methylimidazol-4-yl)-4-[[4-(trifluoromethyl)-2-pyridyl]amino]benzenesulfonamide], in series [1], the AUC(0-t) came out at 521 ng·h/mL and the peak level (Cmax) was 351 ng/mL. The EC50 with H226 (setting [2]) was less than 0.1 µM. The EC50 in the series on TEAD (setting [3]) was less than 0.1 µM.

In series [1], `CNS(=O)(=O)c1ccc(NCc2ccc(C(F)(F)F)cc2)c(-c2cn(C)cn2)c1` [I-32, N-Methyl-3-(1-methyl-1H-imidazol-4-yl)-4-((4-(trifluoromethyl)benzyl)amino)benzenesulfonamide] returned an AUC(0-t) of 4580 ng·h/mL and a Cmax of 1090 ng/mL. In addition, in the series on H226 (setting [2]), the EC50 was less than 0.1 µM. Also, in the series on TEAD (setting [3]), the EC50 was less than 0.1 µM.

Consider `CNS(=O)(=O)c1ccc(N[C@H](C)c2ccccc2)c(-c2cn(C)cn2)c1` [I-30, N-Methyl-3-(1-methylimidazol-4-yl)-4-[[(1R)-1-phenylethyl]amino]benzenesulfonamide], for which the AUC(0-t) in series [1] was 887 ng·h/mL. This compound also showed a Cmax in series [1] of 882 ng/mL. Also, the half-maximal effective concentration (EC50) in the series with H226 (setting [2]) and with TEAD (setting [3]) was less than 0.1 µM in each case.

Turning to `Cn1nnc(-c2cc(B(O)O)ccc2Nc2cccc(C(F)(F)F)c2)n1` [I-17, [3-(2-methyltetrazol-5-yl)-4-[3-(trifluoromethyl)anilino]phenyl]boronic acid], the half-maximal effective concentration (EC50) with H28 was greater than 500 nM; with H226 (setting [2]) it was greater than 0.5 µM; in the series on TEAD (setting [3]), greater than 0.5 µM.

Consider `CNS(=O)(=O)c1ccc(NCc2ccccc2)c(-c2nnn(C)n2)c1` [I-16, 4-(benzylamino)-N-methyl-3-(2-methyltetrazol-5-yl)benzenesulfonamide], for which the EC50 is greater than 500 nM in the series on H28, greater than 0.5 µM in the series with H226 (setting [2]) and 0.1 to 0.5 µM with TEAD (setting [3]).

In series [1], `CNS(=O)(=O)c1cnc(Nc2cccc(C(F)(F)F)c2)c(-c2cn(C)cn2)c1` [I-36, N-Methyl-5-(1-methylimidazol-4-yl)-6-[3-(trifluoromethyl)anilino]pyridine-3-sulfonamide] gave an AUC(0-t) of 595 ng·h/mL and a Cmax of 213 ng/mL. Further, in the series with H226 (setting [4]), the EC50 was less than 0.1 µM. Moreover, the EC50 in the series on TEAD (setting [5]) was less than 0.1 µM.

In series [1], `CNS(=O)(=O)c1ccc(Nc2cccc(C(F)(F)F)c2)c(-c2cn(C)cn2)c1` [P-12] returned an area under the curve AUC(0-t) of 2330 ng·h/mL and a Cmax of 558 ng/mL.

Take `CNS(=O)(=O)c1ccc(NCc2cccc(C(F)(F)F)c2)c(-c2cn(C)cn2)c1` [I-31, N-Methyl-3-(1-methyl-1H-imidazol-4-yl)-4-((3-(trifluoromethyl)benzyl)amino)benzenesulfonamide]: in series [1], the AUC(0-t) stood at 2520 ng·h/mL and the highest concentration (Cmax) was determined as 774 ng/mL. Further, the concentration giving a half-maximal response (EC50) with H226 (setting [2]) was less than 0.1 µM. Also, the EC50 in the series with TEAD (setting [3]) is less than 0.1 µM.

Turning to `CNS(=O)(=O)c1ccc(Nc2ccc(C(F)(F)F)cn2)c(-c2cn(C)cn2)c1` [I-38, N-Methyl-3-(1-methylimidazol-4-yl)-4-[[5-(trifluoromethyl)-2-pyridyl]amino]benzenesulfonamide], the AUC(0-t) in series [1] was 25900 ng·h/mL. For the same compound, the Cmax in series [1] came to 1620 ng/mL. In addition, the concentration giving a half-maximal response (EC50) with H226 (setting [2]) and in the series with TEAD (setting [3]) was less than 0.1 µM in each case.

As for `CNS(=O)(=O)c1ccc(Nc2cccc(C(F)(F)F)c2)c(-c2nnn(C)n2)c1` [P-14], in series [1], the AUC(0-t) amounted to 622 ng·h/mL and the peak level (Cmax) was 210 ng/mL.

For `CC(C)NS(=O)(=O)c1ccc(NCc2ccccc2)c(-c2cn(C)cn2)c1` [I-46, 4-(Benzylamino)-N-isopropyl-3-(1-methylimidazol-4-yl) benzenesulfonamide], the figures for the EC50 in the series on H226 (setting [4]) and in the series on TEAD (setting [5]) were 0.1 to 0.5 µM and greater than 0.5 µM, respectively.

Regarding `CNS(=O)(=O)c1ccc(NC(CO)c2ccccc2)c(-c2cn(C)cn2)c1` (stereo in doubt) [I-39, 4-[[(1S)-2-Hydroxy-1-phenyl-ethyl]amino]-N-methyl-3-(1-methylimidazol-4-yl)benzenesulfonamide], the EC50 in the series with H226 (setting [2]) and with TEAD (setting [3]) was greater than 0.5 µM throughout.

`CNS(=O)(=O)c1ccc(NCc2ccc(C(F)(F)F)nc2)c(-c2cn(C)cn2)c1` [I-76, N-Methyl-3-(1-methyl-1H-imidazol-4-yl)-4-(((6-(trifluoromethyl)pyridin-3-yl)methyl)amino)benzenesulfonamide]: the EC50 in the series on H226 (setting [2]) is 0.1 to 0.5 µM; in the series with TEAD (setting [3]) it was greater than 0.5 µM.

On to `CNS(=O)(=O)c1ccc(NCc2ccccc2)c(-c2cn(C)cn2)c1` [I-27, 4-(Benzylamino)-N-methyl-3-(1-methylimidazol-4-yl)benzenesulfonamide], for which the EC50 in the series on H28 was greater than 500 nM; in the series on H226 (setting [2]) it was less than 0.1 µM; in the series with TEAD (setting [3]), less than 0.1 µM. For the same compound, the AUC(0-t) in series [1] was 2250 ng·h/mL. The same compound showed a Cmax in series [1] of 1040 ng/mL.

`COC(=O)c1ccc(NCc2ccccc2)c(-c2nnn(C)n2)c1` [I-26, Methyl 4-(benzylamino)-3-(2-methyltetrazol-5-yl)benzoate]: the EC50 in the series on H226 (setting [2]) and in the series on TEAD (setting [3]) was greater than 0.5 µM each time.

For `CNS(=O)(=O)c1cnc(N[C@H](C)c2ccccc2)c(-c2cn(C)cn2)c1` [I-35, N-Methyl-5-(1-methylimidazol-4-yl)-6-[[(1R)-1-phenylethyl]amino]pyridine-3-sulfonamide], the EC50 with H226 (setting [2]) and in the series with TEAD (setting [3]) was 0.1 to 0.5 µM in each case.

`CNS(=O)(=O)c1ccc(NCc2ccc(C(F)(F)F)cc2F)c(-c2cn(C)cn2)c1` [I-68, 4-[[2-Fluoro-4-(trifluoromethyl)phenyl]methylamino]-N-methyl-3-(1-methylimidazol-4-yl)benzenesulfonamide]: the EC50 in the series on H226 (setting [2]) and in the series with TEAD (setting [3]) was less than 0.1 µM each time.

Regarding `CNS(=O)(=O)c1ccc(NCc2ccc(C(F)(F)F)cn2)c(-c2cn(C)cn2)c1` [I-70, N-Methyl-3-(1-methylimidazol-4-yl)-4-[[5-(trifluoromethyl)-2-pyridyl]methylamino]benzenesulfonamide], the concentration giving a half-maximal response (EC50) in the series with H226 (setting [2]) is less than 0.1 µM; in the series with TEAD (setting [3]), 0.1 to 0.5 µM.
